Measured values as given in patent US20240360178A1, “MACROCYCLIC IMMUNOMODULATORS” (Bristol-Myers Squibb Company, priority 2021, published 2024).
Positions of bridges follow the written chain, without caps; N, C: chain ends. Non-standard residues stand in square brackets, D forms with d. Residues, ends and D or L forms follow the SMILES beside them. ξ: configuration not given here. *: point of attachment. Bip = N[C@@H](Cc1ccc(-c2ccccc2)cc1)C(=O)O; Phe(3-Me) = Cc1cccc(C[C@H](N)C(=O)O)c1; NMeY = CN[C@@H](Cc1ccc(O)cc1)C(=O)O; Val(3-OH) = CC(C)(O)[C@H](N)C(=O)O; NMeF = CN[C@@H](Cc1ccccc1)C(=O)O; 3Pal = N[C@@H](Cc1cccnc1)C(=O)O; 4Pal = N[C@@H](Cc1ccncc1)C(=O)O; Cha = N[C@@H](CC1CCCCC1)C(=O)O; ξR = N=C(N)NCCCC(N)C(=O)O; Carboxymethyl = O=C(O)C*; NMeA = CN[C@@H](C)C(=O)O; Orn = NCCC[C@H](N)C(=O)O; Dab = NCC[C@H](N)C(=O)O; Abu = CC[C@H](N)C(=O)O; Dap = NC[C@H](N)C(=O)O; ξV = CC(C)C(N)C(=O)O; Sar = CNCC(=O)O

Target: T1, human PD-1 (Jurkat-PD-1 cells) / PE-labeled human PD-L1-Ig (Homo sapiens, UniProt Q15116)
T1 construct: expressed in transfected cells; host or cells: Jurkat cell line over-expressing human PD-1
Assay: Jurkat-PD-1 Cell Binding High-Content Screening Assay (CBA); Jurkat hPD1-PDL1 assay
Conditions: Jurkat cell line over-expressing human PD-1; PE-labeled PD-L1-Ig 20 nM final; compound incubated 2 hours at 37° C.; read-out: Jurkat HPD1-PDL1 IC50
How it was run: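 Jurkat-hPD-1 cells; cpd 2 h, 37° C; then PE-PD-L1-Ig 20 nM final in DMEM/10% FCS; high-content imaging read-out.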

T1 sequence (Q15116 25-288): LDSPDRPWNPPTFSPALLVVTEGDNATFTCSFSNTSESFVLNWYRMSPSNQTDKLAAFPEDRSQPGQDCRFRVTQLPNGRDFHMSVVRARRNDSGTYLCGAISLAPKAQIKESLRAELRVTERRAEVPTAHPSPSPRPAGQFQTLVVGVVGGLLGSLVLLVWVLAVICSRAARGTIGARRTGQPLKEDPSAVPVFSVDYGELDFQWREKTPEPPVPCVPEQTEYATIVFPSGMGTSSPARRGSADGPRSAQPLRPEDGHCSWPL

SMILES	IC50
CC(C)C[C@@H]1NC(=O)[C@H](CC(N)=O)NC(=O)CN(C)C(=O)[C@H](C)N(C)C(=O)[C@H](C(C)C)NC(=O)[C@H](Cc2ccc(-c3ccccc3)cc2)NC(=O)[C@H](CC2CCCCC2)NC(=O)[C@H](Cc2c[nH]c3ccccc23)NC(=O)[C@H](CC(=O)O)NC(=O)[C@H](Cc2ccc(O)cc2)NC(=O)[C@H](Cc2ccccc2)NC(=O)CSC[C@@H](C(=O)NCC(N)=O)NC(=O)[C@H](CO)NC(=O)[C@H](C(C)C)NC1=O [Example 1145] ({CH2CO}-FYDW[Cha][Bip]V[NMeA][Sar]NLVSCG-NH2; thioether N-14)	640 nM
CC[C@H](NC(=O)[C@@H]1CSCC(=O)N[C@@H](Cc2ccccc2)C(=O)N[C@@H](Cc2ccc(O)cc2)C(=O)N[C@@H](CC(=O)O)C(=O)N[C@@H](Cc2c[nH]c3ccccc23)C(=O)N[C@@H](C(C)C)C(=O)N[C@@H](Cc2ccc(-c3ccccc3)cc2)C(=O)N[C@@H](CCCNC(=N)N)C(=O)N(C)[C@@H](C)C(=O)N(C)[C@@H](Cc2ccccc2)C(=O)N[C@@H](CCCNC(=N)N)C(=O)N[C@@H](CC(C)C)C(=O)N[C@@H](C(C)C)C(=O)N[C@@H](CO)C(=O)N1)C(N)=O [Example 1337] ({CH2CO}-FYDWV[Bip]R[NMeA][NMeF]RLVSC[Abu]-NH2; thioether N-14)	870 nM
CC(C)C[C@@H]1NC(=O)[C@H](Cc2c[nH]c3ccccc23)NC(=O)[C@H](CC(=O)O)NC(=O)[C@H](Cc2ccc(O)cc2)NC(=O)[C@H](Cc2cccnc2)NC(=O)CSC[C@@H](C(=O)NCC(N)=O)NC(=O)[C@H](CO)NC(=O)[C@H](C(C)C)NC(=O)[C@H](CC(C)C)NC(=O)[C@H](CC(N)=O)NC(=O)CN(C)C(=O)[C@H](C)N(C)C(=O)[C@H](C(C)C)NC(=O)[C@H](Cc2ccc(-c3ccccc3)cc2)NC1=O [Example 1118] ({CH2CO}-[3Pal]YDWL[Bip]V[NMeA][Sar]NLVSCG-NH2; thioether N-14)	420 nM
CC(C)C[C@@H]1NC(=O)[C@H](Cc2c[nH]c3ccccc23)NC(=O)[C@H](CC(=O)O)NC(=O)[C@H](Cc2ccc(O)cc2)NC(=O)[C@H](CC2CCCCC2)NC(=O)CSC[C@@H](C(=O)NCC(N)=O)NC(=O)[C@H](CO)NC(=O)[C@H](C(C)C)NC(=O)[C@H](CC(C)C)NC(=O)[C@H](CC(N)=O)NC(=O)CN(C)C(=O)[C@H](C)N(C)C(=O)[C@H](C(C)C)NC(=O)[C@H](Cc2ccc(-c3ccccc3)cc2)NC1=O [Example 1117] ({CH2CO}-[Cha]YDWL[Bip]V[NMeA][Sar]NLVSCG-NH2; thioether N-14)	410 nM
CC(C)C[C@@H]1NC(=O)CSC[C@@H](C(=O)N[C@@H](C)C(N)=O)NC(=O)[C@H](CO)NC(=O)[C@H](C(C)C)NC(=O)[C@H](CC(C)C)NC(=O)[C@H](CCCNC(=N)N)NC(=O)[C@H](Cc2ccccc2)N(C)C(=O)[C@H](C)N(C)C(=O)[C@H](CCCNC(=N)N)NC(=O)[C@H](Cc2ccc(-c3ccccc3)cc2)NC(=O)[C@H](C(C)C)NC(=O)[C@H](Cc2c[nH]c3ccccc23)NC(=O)[C@H](CC(=O)O)NC(=O)[C@H](Cc2ccc(O)cc2)NC1=O [Example 1308] ({CH2CO}-LYDWV[Bip]R[NMeA][NMeF]RLVSCA-NH2; thioether N-14)	410 nM
CC(C)C1NC(=O)[C@H](Cc2c[nH]c3ccccc23)NC(=O)[C@H](CC(=O)O)NC(=O)[C@H](Cc2ccncc2)NC(=O)[C@H](CN)NC(=O)CSC[C@@H](C(=O)N[C@@H](C)C(N)=O)NC(=O)[C@H]([C@@H](C)O)NC(=O)[C@H](C(C)C)NC(=O)[C@H](CC2CCCCC2)NC(=O)[C@H](CCN)NC(=O)[C@H](Cc2ccc(O)cc2)N(C)C(=O)[C@H](CCCN)NC(=O)[C@H](CCC(=O)O)NC(=O)[C@H](Cc2ccc(-c3ccccc3)cc2)NC1=O (stereo partly drawn) [Example 1451] ({CH2CO}-[Dap][4Pal]DW[ξV][Bip]E[Orn][NMeY][Dab][Cha]VTCA-NH2; thioether N-14)	520 nM
CC(C)C[C@@H]1NC(=O)[C@H](CCCNC(=N)N)NC(=O)[C@H](Cc2ccccc2)N(C)C(=O)[C@H](C)N(C)C(=O)[C@H](CCC(=O)O)NC(=O)[C@H](Cc2ccc(-c3ccccc3)cc2)NC(=O)[C@H](C(C)C)NC(=O)[C@H](Cc2c[nH]c3ccccc23)NC(=O)[C@H](CC(=O)O)NC(=O)[C@H](Cc2ccc(O)cc2)NC(=O)[C@H](CCC(N)=O)NC(=O)CSC[C@@H](C(=O)NCC(N)=O)NC(=O)[C@H](CO)NC(=O)[C@H](C(C)C)NC1=O [Example 1286] ({CH2CO}-QYDWV[Bip]E[NMeA][NMeF]RLVSCG-NH2; thioether N-14)	750 nM

Compounds with a lower IC50, results first:

IC50	SMILES
80 nM	Cc1cccc(C[C@@H]2NC(=O)[C@H](CC(=O)O)NC(=O)[C@H](Cc3ccc(OCC(=O)O)cc3)NC(=O)[C@H](Cc3ccncc3)NC(=O)CSC[C@@H](C(=O)N[C@@H](CCN)C(N)=O)NC(=O)[C@H](CO)NC(=O)[C@H](C(C)(C)O)NC(=O)[C@H](CC3CCCCC3)NC(=O)[C@H](CCN)NC(=O)[C@H]3CCCN3C(=O)[C@H](C)N(C)C(=O)[C@H](Cc3ccc(OCC(=O)O)cc3)NC(=O)[C@H](Cc3ccc(-c4ccccc4)cc3)NC(=O)[C@H](Cc3ccc(OCC(=O)O)cc3)NC2=O)c1 [Example 1179] ({CH2CO}-[4Pal]Y(Carboxymethyl)D[Phe(3-Me)]Y(Carboxymethyl)[Bip]Y(Carboxymethyl)[NMeA][dP][Dab][Cha][Val(3-OH)]SC[Dab]-NH2; thioether N-14)
320 nM	CC(C)C1NC(=O)[C@H](Cc2c[nH]c3ccccc23)NC(=O)[C@H](CC(=O)O)NC(=O)[C@H](Cc2ccc(OCC(=O)O)cc2)NC(=O)[C@H](CN)NC(=O)CSC[C@@H](C(=O)N[C@@H](C)C(N)=O)NC(=O)[C@H]([C@@H](C)O)NC(=O)[C@H](C(C)C)NC(=O)[C@H](CC2CCCCC2)NC(=O)[C@H](CCN)NC(=O)[C@H](Cc2ccc(O)cc2)N(C)C(=O)[C@H](CCCN)NC(=O)[C@H](CCC(=O)O)NC(=O)[C@H](Cc2ccc(-c3ccccc3)cc2)NC1=O (stereo partly drawn) [Example 1453] ({CH2CO}-[Dap]Y(Carboxymethyl)DW[ξV][Bip]E[Orn][NMeY][Dab][Cha]VTCA-NH2; thioether N-14)
50 nM	CC(C)C[C@@H]1NC(=O)[C@H](Cc2c[nH]c3ccccc23)NC(=O)[C@H](CC(=O)O)NC(=O)[C@H](Cc2ccc(O)cc2)NC(=O)[C@H](Cc2ccccc2)NC(=O)CSC[C@@H](C(=O)N[C@@H](C)C(N)=O)NC(=O)[C@H]([C@@H](C)O)NC(=O)[C@H](C(C)C)NC(=O)[C@H](CC(C)C)NC(=O)[C@H](CCN)NC(=O)[C@H]2CCCN2C(=O)[C@H](C)N(C)C(=O)[C@H](C(C)C)NC(=O)[C@H](Cc2ccc(-c3ccccc3)cc2)NC1=O [Example 1398] ({CH2CO}-FYDWL[Bip]V[NMeA][dP][Dab]LVTCA-NH2; thioether N-14)
230 nM	CC(C)C[C@@H]1NC(=O)C(CCCNC(=N)N)NC(=O)[C@H](Cc2ccccc2)N(C)C(=O)[C@H](C)N(C)C(=O)[C@H](CCCNC(=N)N)NC(=O)[C@H](Cc2ccc(-c3ccccc3)cc2)NC(=O)[C@H](C(C)C)NC(=O)[C@H](Cc2c[nH]c3ccccc23)NC(=O)[C@H](CC(=O)O)NC(=O)[C@H](Cc2ccc(O)cc2)NC(=O)[C@H](Cc2ccccc2)NC(=O)CSC[C@@H](C(=O)NCC(N)=O)NC(=O)[C@H](CO)NC(=O)[C@H](CCC(=O)O)NC1=O (stereo partly drawn) [Example 1218] ({CH2CO}-FYDWV[Bip]R[NMeA][NMeF][ξR]LESCG-NH2; thioether N-14)
120 nM	CC(C)C[C@@H]1NC(=O)[C@H](CCCN)NC(=O)[C@H](Cc2ccccc2)N(C)C(=O)[C@H](C)N(C)C(=O)[C@H](CCCNC(=N)N)NC(=O)[C@H](Cc2ccc(-c3ccccc3)cc2)NC(=O)[C@H](C(C)C)NC(=O)[C@H](Cc2c[nH]c3ccccc23)NC(=O)[C@H](CC(=O)O)NC(=O)[C@H](Cc2ccc(O)cc2)NC(=O)[C@H](Cc2ccccc2)NC(=O)CSC[C@@H](C(=O)N[C@@H](C)C(N)=O)NC(=O)[C@H]([C@@H](C)O)NC(=O)[C@H](C(C)C)NC1=O [Example 1345] ({CH2CO}-FYDWV[Bip]R[NMeA][NMeF][Orn]LVTCA-NH2; thioether N-14)
90 nM	CC(C)C[C@@H]1NC(=O)C(CCCNC(=N)N)NC(=O)[C@H](Cc2ccccc2)N(C)C(=O)[C@H](CCCCN)NC(=O)[C@H](CCCNC(=N)N)NC(=O)[C@H](Cc2ccc(-c3ccccc3)cc2)NC(=O)[C@H](C(C)C)NC(=O)[C@H](Cc2c[nH]c3ccccc23)NC(=O)[C@H](CC(=O)O)NC(=O)[C@H](Cc2ccc(O)cc2)NC(=O)[C@H](Cc2ccccc2)NC(=O)CSC[C@@H](C(=O)NCC(N)=O)NC(=O)[C@H](CO)NC(=O)[C@H](C(C)C)NC1=O (stereo partly drawn) [Example 1216] ({CH2CO}-FYDWV[Bip]RK[NMeF][ξR]LVSCG-NH2; thioether N-14)
60 nM	CC(C)C[C@@H]1NC(=O)[C@H](Cc2c[nH]c3ccccc23)NC(=O)[C@H](CC(=O)O)NC(=O)[C@H](Cc2ccc(O)cc2)NC(=O)[C@H](Cc2ccccc2)NC(=O)CSC[C@@H](C(=O)N[C@@H](C)C(N)=O)NC(=O)[C@H](CO)NC(=O)[C@H](C(C)C)NC(=O)[C@H](CC(C)C)NC(=O)[C@H](CC(N)=O)NC(=O)[C@H]2CCCN2C(=O)[C@H](C)N(C)C(=O)[C@H](C(C)C)NC(=O)[C@H](Cc2ccc(-c3ccccc3)cc2)NC1=O [Example 1034] ({CH2CO}-FYDWL[Bip]V[NMeA][dP]NLVSCA-NH2; thioether N-14)
140 nM	CC(C)C[C@@H]1NC(=O)[C@H](Cc2c[nH]c3ccccc23)NC(=O)[C@H](CC(=O)O)NC(=O)[C@H](Cc2ccc(OCC(=O)O)cc2)NC(=O)[C@H](CN)NC(=O)CSC[C@@H](C(=O)N[C@@H](C)C(N)=O)NC(=O)[C@H](CO)NC(=O)[C@H](C(C)C)NC(=O)[C@H](CC(C)C)NC(=O)[C@H](CC(N)=O)NC(=O)[C@H]2CCCN2C(=O)[C@H](C)N(C)C(=O)[C@H](C(C)C)NC(=O)[C@H](Cc2ccc(-c3ccccc3)cc2)NC1=O [Example 1386] ({CH2CO}-[Dap]Y(Carboxymethyl)DWL[Bip]V[NMeA][dP]NLVSCA-NH2; thioether N-14)
